Results taken from ChEMBL document CHEMBL1143262, “1-Oxo-3-substitute-isothiochroman-4-carboxylic acid compounds: synthesis and biological activities of FAS inhibition” (Bioorg Med Chem Lett, 2009).

How the values were obtained:
[1] = Cytotoxicity against HLF by MTT assay; settings: human, HLF cells; read-out: TC50 (the source's name)
fatty acid synthase [2] = assay: Therapeutic index, ratio of TC50 for HLF to IC50 for Sprague-Dawley rat liver fatty acid synthase; settings: human (HLF cells), HLF cells versus rat liver fatty acid synthase
Fatty acid synthase [3] = target: Fatty acid synthase (Rattus norvegicus, UniProt P12785); assay: Inhibition of Sprague-Dawley rat liver fatty acid synthase
[4] = target: Fatty acid synthase (Rattus norvegicus) (UniProt P12785); assay: Inhibition of Sprague-Dawley rat liver fatty acid synthase at 60 umol
Chain of Fatty acid synthase (Rattus norvegicus) (P12785 whole entry): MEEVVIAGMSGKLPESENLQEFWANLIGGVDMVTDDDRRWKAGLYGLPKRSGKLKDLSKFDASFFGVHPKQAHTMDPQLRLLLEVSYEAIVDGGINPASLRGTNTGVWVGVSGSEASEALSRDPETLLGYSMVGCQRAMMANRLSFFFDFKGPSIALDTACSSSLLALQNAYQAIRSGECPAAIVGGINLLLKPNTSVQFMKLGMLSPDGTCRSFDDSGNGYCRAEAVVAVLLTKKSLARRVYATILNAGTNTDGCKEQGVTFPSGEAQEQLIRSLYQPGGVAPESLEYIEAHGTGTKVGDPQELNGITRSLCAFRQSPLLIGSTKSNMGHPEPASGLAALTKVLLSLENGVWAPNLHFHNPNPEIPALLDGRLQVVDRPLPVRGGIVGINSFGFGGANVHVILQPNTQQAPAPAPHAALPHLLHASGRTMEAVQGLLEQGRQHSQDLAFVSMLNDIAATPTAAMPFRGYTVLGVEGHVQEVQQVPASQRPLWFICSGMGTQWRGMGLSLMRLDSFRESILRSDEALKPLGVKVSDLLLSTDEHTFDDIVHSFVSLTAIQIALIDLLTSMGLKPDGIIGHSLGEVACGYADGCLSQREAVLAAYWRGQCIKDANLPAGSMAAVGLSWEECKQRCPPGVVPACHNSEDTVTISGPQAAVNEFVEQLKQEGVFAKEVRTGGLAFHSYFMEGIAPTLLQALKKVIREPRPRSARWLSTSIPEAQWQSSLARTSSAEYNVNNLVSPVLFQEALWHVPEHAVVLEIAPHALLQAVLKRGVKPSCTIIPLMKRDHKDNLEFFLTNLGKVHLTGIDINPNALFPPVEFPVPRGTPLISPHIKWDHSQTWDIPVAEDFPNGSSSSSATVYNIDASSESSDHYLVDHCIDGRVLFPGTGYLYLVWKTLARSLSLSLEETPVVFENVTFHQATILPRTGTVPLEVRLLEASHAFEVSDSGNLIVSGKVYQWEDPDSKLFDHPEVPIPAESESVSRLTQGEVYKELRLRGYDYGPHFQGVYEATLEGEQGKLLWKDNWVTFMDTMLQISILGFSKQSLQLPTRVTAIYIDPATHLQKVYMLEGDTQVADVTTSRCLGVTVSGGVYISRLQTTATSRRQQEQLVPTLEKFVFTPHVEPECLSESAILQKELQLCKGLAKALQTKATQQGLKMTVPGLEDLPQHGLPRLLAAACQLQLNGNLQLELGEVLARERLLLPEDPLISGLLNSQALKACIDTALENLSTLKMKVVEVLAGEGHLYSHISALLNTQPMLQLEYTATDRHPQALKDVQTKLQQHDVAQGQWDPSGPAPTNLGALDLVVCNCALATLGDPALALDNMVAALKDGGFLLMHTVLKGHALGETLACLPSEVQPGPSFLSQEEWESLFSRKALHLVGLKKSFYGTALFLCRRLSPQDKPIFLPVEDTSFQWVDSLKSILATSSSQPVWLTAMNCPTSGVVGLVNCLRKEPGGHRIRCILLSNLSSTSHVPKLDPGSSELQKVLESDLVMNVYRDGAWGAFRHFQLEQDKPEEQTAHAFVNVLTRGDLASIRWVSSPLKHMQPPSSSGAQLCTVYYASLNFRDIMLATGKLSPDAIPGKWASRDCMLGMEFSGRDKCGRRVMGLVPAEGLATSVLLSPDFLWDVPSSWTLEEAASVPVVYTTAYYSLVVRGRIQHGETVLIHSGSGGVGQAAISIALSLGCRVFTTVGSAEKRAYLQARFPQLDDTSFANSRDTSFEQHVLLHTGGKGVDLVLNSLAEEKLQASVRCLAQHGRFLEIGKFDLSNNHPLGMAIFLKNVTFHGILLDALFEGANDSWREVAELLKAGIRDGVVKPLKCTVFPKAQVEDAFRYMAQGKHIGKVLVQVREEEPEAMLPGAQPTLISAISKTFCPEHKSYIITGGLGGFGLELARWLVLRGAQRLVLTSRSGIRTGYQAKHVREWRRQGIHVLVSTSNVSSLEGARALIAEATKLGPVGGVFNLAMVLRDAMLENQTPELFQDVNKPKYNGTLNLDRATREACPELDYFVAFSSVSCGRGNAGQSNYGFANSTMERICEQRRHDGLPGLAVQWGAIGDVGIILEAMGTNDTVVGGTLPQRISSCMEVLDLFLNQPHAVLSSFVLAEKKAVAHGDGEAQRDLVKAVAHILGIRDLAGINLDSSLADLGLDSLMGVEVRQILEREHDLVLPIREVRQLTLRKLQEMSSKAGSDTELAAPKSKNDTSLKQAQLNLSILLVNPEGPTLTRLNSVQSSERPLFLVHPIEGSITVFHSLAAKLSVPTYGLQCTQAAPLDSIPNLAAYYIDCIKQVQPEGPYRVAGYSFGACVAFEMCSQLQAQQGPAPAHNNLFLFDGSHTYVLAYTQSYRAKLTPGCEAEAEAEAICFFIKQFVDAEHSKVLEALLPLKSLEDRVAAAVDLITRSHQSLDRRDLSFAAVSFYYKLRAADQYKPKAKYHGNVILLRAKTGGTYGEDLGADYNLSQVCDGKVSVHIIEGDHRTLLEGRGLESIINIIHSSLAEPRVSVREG

Chain of Fatty acid synthase (P12785 whole entry): as above

Structure (SMILES)	IC50 (Fatty acid synthase [3])	inhibition [4]	CC50 [1]	selectivity ratio (fatty acid synthase [2])
CCCCCC[C@H]1SC(=O)c2ccccc2[C@@H]1C(=O)O (relative stereo)	36.7 µM	40.4%	> 200 µM	
C=C1C(=O)O[C@H](CCCCCCCC)[C@H]1C(=O)O (relative stereo)	15.5 µM		87.1 µM	5.61
CCCCCCC[C@H]1SC(=O)c2ccccc2[C@@H]1C(=O)O (relative stereo)	26.9 µM	43.1%	> 200 µM	
CCCCCCCC[C@H]1SC(=O)c2ccccc2[C@@H]1C(=O)O (relative stereo)	12.3 µM	50.9%	84.2 µM	6.83

The next compounds have a lower IC50 (Fatty acid synthase [3]) than those just listed; values first:

IC50 (Fatty acid synthase [3])	inhibition [4]	Structure (SMILES)	CC50 [1]	selectivity ratio (fatty acid synthase [2])
8.29 µM	77.5%	CCCCCCCCCC1SC(=O)c2ccccc2[C@@H]1C(=O)O (stereo not given in full)	88.6 µM	10.7
3.62 µM	95.7%	CCCCCCCCCCC[C@H]1SC(=O)c2ccccc2[C@@H]1C(=O)O (relative stereo)	9.67 µM	2.67
4.11 µM	90.2%	CCCCCCCCCC[C@H]1SC(=O)c2ccccc2[C@@H]1C(=O)O (relative stereo)	12 µM	2.92
